Test results published in patent publication US20090054515A1, “SKIN-WHITENING COSMETIC” (POLA CHEMICAL INDUSTRIES INC., priority 2006, published 2009).

Legend:
human normal melanocytes = assay: Melanin formation inhibition test (14C-thiouracil uptake); format: cell-based; settings: for Melanin level (%): three days culture, % of control
Protocol: The melanin formation inhibitory action of Compound (1) was evaluated using thiouracil (in this test, thiouracil labeled with ^14C was used), which is specifically taken into cells in a melanin synthesis process. A complete medium for culturing melanocytes (from Kurabo Industries Ltd.) was added to 15 wells of a 24-well plate in an amount of 2 ml per well, and human normal melanocytes (from Kurabo Industries Ltd.) were inoculated into each well at a concentration of 1.5×10^4 cells/cm^2. The cells were cultured at 37° C. for 24 hours under 5% carbon dioxide atmosphere. Thereafter, in all the wells, the medium was exchanged under the following conditions. That is, a fresh complete medium for culturing melanocytes was added to three wells (control), complete mediums for culturing melanocytes containing Compound (1) at concentrations of 1.0×10^−3 mM, 2.0×10^−3 mM, and 4.0×10^−3 mM were added to three wells each (total: nine wells), and a complete medium for culturing melanocytes containing 0.1 mM phenylthiourea, which is known as a tyrosinase inhibitor, was added to other three wells. In addition, to those 15 wells was added ^14C-thiouracil (thiouracil labeled with ^14C) was added at 0.25×10^−6 Ci (curie). The cells were cultured under the same conditions as above for further three days. After completion of the culture, the culture solution was removed from the wells, and the cells were washed with PBS (phosphate buffered saline) and detached with a medium containing trypsin and EDTA from the bottom of each well to produce cell suspensions, followed by centrifugation to collect the cells. The numbers of the cells were counted using a blood cell counting chamber. Thereafter, the ^14C-thiouracil level in the cells collected from each well was determined using a liquid scintillation counter. The percentage of a radiation dose of the cells cultured in each medium containing a test substance based on a radiation dose of the cells collected from the control wells was calculated to determine a melanin level (%). That is, it is considered that the smaller the radiation dose taken in the cells is, the smaller the melanin level is, resulting in a large melanin inhibition titer.

[1] = target: T1, tyrosinase extracted from normal human melanocytes (Homo sapiens, UniProt P14679); assay: Normal human melanocytes tyrosinase activity inhibition test (dopa-oxidizing activity); format: biochemical; settings: for Dopa-oxidizing activity: control defined as 100%, 10 minutes at 37° C.; for action on the activity of tyrosinase: 1 to 100 μM
T1 construct: to thereby produce a protein solution, which was used as a crude tyrosinase protein solution; host or cells: human normal melanocytes; extract made with a Subcellular Proteome Extraction Kit (Calbiochem)
T1 sequence (P14679 19-529): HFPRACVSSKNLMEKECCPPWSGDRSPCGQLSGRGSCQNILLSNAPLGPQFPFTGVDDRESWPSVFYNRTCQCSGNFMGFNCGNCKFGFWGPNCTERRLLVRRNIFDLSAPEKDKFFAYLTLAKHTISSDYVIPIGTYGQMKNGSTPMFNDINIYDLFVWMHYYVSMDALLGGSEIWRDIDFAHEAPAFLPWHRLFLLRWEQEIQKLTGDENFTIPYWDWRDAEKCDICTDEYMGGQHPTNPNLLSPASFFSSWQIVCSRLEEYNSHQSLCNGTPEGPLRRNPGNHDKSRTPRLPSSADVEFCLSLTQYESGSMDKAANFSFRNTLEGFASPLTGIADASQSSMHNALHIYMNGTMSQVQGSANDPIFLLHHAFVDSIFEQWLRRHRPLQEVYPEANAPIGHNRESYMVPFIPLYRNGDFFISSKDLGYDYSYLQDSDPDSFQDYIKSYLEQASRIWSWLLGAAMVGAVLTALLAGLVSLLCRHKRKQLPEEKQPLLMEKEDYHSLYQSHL
Protocol: Human normal melanocytes (from Kurabo Industries Ltd.), cultured in a medium for culturing melanocytes (Medium 254, from Kurabo Industries Ltd.), were collected using a cell scraper, and extraction was performed for the cells using PreteoExtract™ Subcellular Proteome Extraction Kit (Calbiochem), to thereby produce a protein solution, which was used as a crude tyrosinase protein solution. The dopa-oxidizing activity of the tyrosinase protein solution was measured to evaluate the tyrosinase activity-inhibiting action of Compound (1).
A 0.1% dopa solution, serving as a substrate, was prepared by dissolving L-β-(3,4-dihydroxyphenyl)alanine (L-DOPA) in 10 mM sodium phosphate buffer (pH 6.8) at a concentration of 0.1 (w/v) %. A crude tyrosinase protein solution, prepared to 1 to 5 μg/80 μL, was fed into a 96-well plate in an amount of 80 μL per well, and solutions of 10 μM, 100 μM, and 1,000 μM Compound (1) in DMSO were separately added to three wells each in an amount of 20 μL per well. Meanwhile, as positive controls, solutions of 10 μM, 100 μM, and 1,000 μM phenylthiourea, known as a tyrosinase activity inhibitor, in DMSO were separately added in the same way as above to different three wells each in an amount of 20 μL per well. In addition, as a control, DMSO was added to another different three wells each in an amount of 20 μL per well. Immediately after 100 μL each of the 0.1% dopa solution was added to the wells each containing the above-described test solution, absorbances at 450 nm were measured using a plate reader and were defined as 0-minute values. The 96-well plate was incubated at 37° C. for 10 minutes in the plate reader, and the absorbances at 450 nm were measured again and defined as 10-minute values. A value calculated by subtracting the 0-minute value from the 10-minute value of each well was defined as a 0→10 minute absorbance change value, and the average of 0→10 minute absorbance change value of control was defined as 100%, followed by measurement of dopa-oxidizing activities in the cases of treatments with various concentrations of test substances.

tyrosinase = assay: Expression of tyrosinase by Western blotting; format: cell-based; settings: 5 μM, 72-hour culture, human normal melanocytes
Protocol: (§1) A cell suspension of human normal melanocytes (from Kurabo Industries Ltd.) in a medium for culturing melanocytes (Medium 254, from Kurabo Industries Ltd.) was prepared at 7×10^4 cells/mL and inoculated into φ10-cm culture petri dishes in an amount of 10 mL per dish, and the cells were cultured in a CO2 incubator (37° C., 5% CO2). The next day, the medium was removed, and a medium for culturing melanocytes containing 2 μM or 5 μM Compound (1) or a medium for culturing melanocytes (control) was added in an amount of 10 mL per dish, followed by culture in a CO2 incubator for 72 hours. After 72-hour culture, the medium was removed, and the cells were washed with phosphate buffered saline (PBS) and collected using a cell scraper. A protein extraction solution (0.1% NP-40, 0.01% SDS, 10 mM sodium phosphate buffer (pH 6.8), protease inhibitor) was added to the cell pellets to suspend the cells, and the suspension was shaken at 4° C. for 1 hour. The resultant was centrifuged at 4° C. and 15,000 rpm for 10 minutes, and the supernatant was collected and used as a crude protein extract. […]
(§2) The membrane was washed with TPBS, and proteins were detected using an ECL Plus western blotting detection system. […]

Trp-1 = assay: Expression of Trp-1 by Western blotting; format: cell-based; settings: 5 μM, 72-hour culture, human normal melanocytes
Protocol: as §1, §2

Trp-2 = assay: Expression of Trp-2 by Western blotting; format: cell-based; settings: 5 μM, 72-hour culture, human normal melanocytes
Protocol: as §1, §2

| SMILES | melanin formation inhibitory action (human normal melanocytes; 1.0-4.0 × 10^−3 mM) | Melanin level (%) (human normal melanocytes; 1.0 × 10^−3 mM in medium) | Melanin level (%) (human normal melanocytes; 2.0 × 10^−3 mM in medium) | Melanin level (%) (human normal melanocytes; 4.0 × 10^−3 mM in medium) | melanin formation inhibition titer relative to phenylthiourea (positive control) (human normal melanocytes; Compound (1) 4.0×10^−3 mM versus phenylthiourea 0.1 mM) | inhibition of melanin formation (human normal melanocytes; cultured cell system of Test Example 1, concentration 25-fold lower than 100 μM) | Dopa-oxidizing activity ([1]; 1 μM added substance) | Dopa-oxidizing activity ([1]; 10 μM added substance) | Dopa-oxidizing activity ([1]; 100 μM added substance) | action on the activity of tyrosinase [1] | expression level of tyrosinase (tyrosinase) | expression level of Trp-1 (Trp-1) | expression level of Trp-2 (Trp-2) | Melanin level (%) (human normal melanocytes; 0.1 mM in medium) |
| --- | --- | --- | --- | --- | --- | --- | --- | --- | --- | --- | --- | --- | --- | --- |
| CC(C)(C)c1cc(C(=O)c2cccs2)cc(C(C)(C)C)c1O [Compound (1), 2,6-di-tert-butyl-4-(2′-thenoyl)phenol] | concentration-dependent melanin formation inhibitory action | 48.5 ± 2.3% | 27.9 ± 0.8% | 17.0 ± 0.8% | ≥ 20 times | ≥ 80% | 103.55 ± 1.34% | 102.52 ± 3.68% | 102.52 ± 2.19% | did not inhibit the activity of tyrosinase | did not affect | did not affect | did not affect |  |
| NC(=S)Nc1ccccc1 [Phenylthiourea, phenylthiourea, reference compound] |  |  |  |  |  |  | 64.07 ± 1.53% | 22.52 ± 1.09% | 4.73 ± 2.07% | had an action of inhibiting the activity of tyrosinase |  |  |  | 20.3 ± 3.8% |
